Measured values reported in patent US20230277525A1, “CONJUGATE OF FUNCTIONAL DRUG AND TOLL-LIKE RECEPTOR 7 OR 8 AGONIST OF WHICH ACTIVE SITE IS TEMPORARILY INACTIVATED AND USE THEREOF” (priority 2020, published 2023).

B1: complex of the OVA protein antigen and resiquimod, having a bond cleaved by cathepsin-B: OVA protein antigen linked to resiquimod active site via Mal-Val-Cit-PAB linker cleaved by cathepsin-B (conjugate, UniProt P01012 2-386, looked up)
Ovalbumin: GSIGAASMEFCFDVFKELKVHHANENIFYCPIAIMSALAMVYLGAKDSTRTQINKVVRFDKLPGFGDSIEAQCGTSVNVHSSLRDILNQITKPNDVYSFSLASRLYAEERYPILPEYLQCVKELYRGGLEPINFQTAADQARELINSWVESQTNGIIRNVLQPSSVDSQTAMVLVNAIVFKGLWEKAFKDEDTQAMPFRVTEQESKPVQMMYQIGLFRVASMASEKMKILELPFASGTMSMLVLLPDEVSGLEQLESIINFEKLTEWTSSNVMEERKIKVYLPRMKMEEKYNLTSVLMAMGITDVFSSSANLSGISSAESLKISQAVHAAHAEINEAGREVVGSAEAGVDAASVSEEFRADHPFLFCIKHIATNAVLFFGRCVSP
modifications: resiquimod via Mal-Val-Cit-PAB linker

Legend:
IL-6 [1] = test: blood inflammatory cytokine (IL-6) level after intravenous injection, AAC-001 study; assay type: in vivo; settings: mouse, blood collected at 0, 1, 2 and 4 hours, ELISA, FIG. 18
Protocol: To confirm the effect of the antibody-resiquimod complex (AAC-001) synthesized in the same manner as in Example 14.1 on the secretion of inflammatory cytokine in blood, after intravenously injecting the AAC-001 complex or resiquimod into a mouse, blood samples were collected at 0, 1, 2, and 4 hours. The collected blood sample was centrifuged at 10,000×g for 20 minutes to separate serum, and the concentration of IL-6, which is a representative inflammatory cytokine, present in serum was measured using the Invitrogen mouse IL-6 ELISA kit.

IL-6 [2] = test: blood inflammatory cytokine (IL-6) level after intravenous injection, AAC-002 study; assay type: in vivo; settings: mouse, two hours after intravenous injection, ELISA; FIG. 20
Protocol: To confirm the effect of the antibody-resiquimod complex (AAC-002) synthesized in the same manner as in Example 15.1 on the secretion of an inflammatory cytokine in blood, two hours after the AAC-002 complex (conjugated TLR7/8a-Blocked active site) was intravenously injected into a mouse, blood samples were collected. The collected blood sample was centrifuged at 10,000×g for 20 minutes to separate serum, and the concentration of IL-6, which is a representative inflammatory cytokine, present in serum was measured using the Invitrogen mouse IL-6 ELISA kit. As controls, a phosphate-buffered saline-injected group (Blank), a resiquimod only-injected group (Bare TLR7/8a-Uncomplexd), and a group into which an antibody-resiquimod complex in which the antibody binds to a site other than the active site, is injected (conjugated TLR7/8a-Live active site) were used for comparison.

[3] = size of complex in aqueous solution by spectroscopy; assay type: physicochemical; settings: in an aqueous solution; FIG. 21
Protocol: To synthesize a complex of a protein antigen, which is a type of sulfhydryl group-containing protein-based drug, and resiquimod, having a bond cleaved by cathepsin-B, first, resiquimod to which a linker binds to its active site was synthesized. In further detail, resiquimod (10 mg) and Mal-Val-Cit-PAB-PNP (47.2 mg) were added to 2 mL of N,N-dimethylformamide (DMF), and then dissolved. Afterward, N,N-diisopropylethylamine (DIPEA; 6.7 μL) and 1-hydroxybenzotriazole hydrate (1-HOBt; 315 μg) were added. Then, a mixture was prepared by stirring at room temperature for 16 hours. The OVA protein antigen (10 mg) was added to the prepared mixture and reacted, thereby preparing a complex, and then the resulting complex was purified by thin-layer chromatography, thereby preparing an OVA protein antigen-resiquimod complex having a bond cleaved by cathepsin-B. Then, the prepared complex was subjected to spectroscopy to confirm its size.

Molecule	inflammatory cytokine (IL-6) level in serum (IL-6 [1])	inflammatory cytokine (IL-6) level in serum (IL-6 [2])	nanoparticle size [3]
CCOCc1nc2c(N)nc3ccccc3c2n1CC(C)(C)O [resiquimod]	promotes the secretion of inflammatory cytokines and induces a cytokine storm	remarkably increasing an inflammatory cytokine level in blood	
B1			approximately 99.7 nm
